{"source": "patent US11752132B2", "about": "“Materials and methods for improving gastrointestinal function” (University of Florida Research Foundation, Incorporated, priority 2010, dated 2023)", "key": {"small intestine mucosa": {"system": "small intestine mucosa", "conditions": "mouse, in vivo", "method": "Following each injection, transepithelial ISC, an indicator of net anion secretion, is measured using an Ussing chamber, at time points as indicated in FIG. 20. For each measurement, a minimum of 32 tissues is examined."}, "[1]": {"system": "jejunal mucosa (net anion secretion)", "test": "Ussing chamber transepithelial short circuit current (Isc) with transport blockers/forskolin", "assay_type": "cell-based, mice", "conditions": "for basal Isc after bumetanide: 100 μM bumetanide in bath solution", "description": "To study active HCO3^− secretion, 8-week-old, non-irradiated and irradiated, male BALB/c mice were obtained from the National Cancer Institute. Mice were randomly divided into groups, and abdomens were irradiated according to the gastrointestinal acute radiation syndrome (GI ARS) model with a Shepherd Mark-I, using a ^137Cs source delivering γ-irradiation at 1.84 Gy/min. Radiation was given as a single fraction. The GI ARS model will achieve maximum radiation damage to intestinal tissues, and mimics intestinal injury during radiation therapy of pelvic or abdominal tumors.\nChanges in short circuit current (Isc), both as a function of time following radiation and with increasing doses of radiation, were examined to determine the earliest time and the minimum radiation dose required to produce significant changes in Isc. These studies were approved by the University of Rochester Animal Care and Use Committee.\nFollowing exsanguinations, jejunal segment was obtained by excluding the distal 12 cm of small intestine adjacent to the caecum. This segment was washed and flushed in ice-cold Ringer's solution before the mucosa was stripped from the underlying muscular layers (Zhang, Ameen et al. 2007). The mucosa was mounted between the 2 halves of an Ussing-type Lucite chamber with an area of 0.30 cm^2 (P2304, Physiologic instruments, San Diego, Calif. 92128 USA), and electrical parameters were recorded using a voltage/current clamp device (VCC MC-8, Physiologic instruments, San Diego, Calif. 92128 USA) (Vidyasagar et al. 2005; Vidyasagar et al. 2004; Zhang et al. 2007; Vidyasagar and Ramakrishna 2002).\nTo determine the contribution of NKCC1 to basal Isc, 100 μM bumetanide (Sigma-Aldrich Co., USA) was added to the bath solution.\nTo determine whether the bumetanide-insensitive portion of Isc occurs via an apical membrane anion channel, a non-specific anion channel blocker, 5-nitro-2-(3-phenylpropylamino)-benzoic acid (Sigma-Aldrich Co., USA) (10 μM NPPB), and a specific cystic fibrosis transmembrane conductance regulator (CFTR) blocker (100 μM glibenclamide, Sigma-Aldrich Co., USA) were applied."}, "[2]": {"system": "jejunum (HCO3^− secretion)", "test": "pH stat measurement of HCO3^− secretion in stripped jejunal sheets", "assay_type": "cell-based, mice", "conditions": "for forskolin-stimulated HCO3^− secretion after blocker: 0 Gy + forskolin, blocker on luminal side (100 μM glibenclamide; NPPB)", "protocol": "A Bi-burette TIM 856 (Radiometer Analytical SAS, Villeurbanne, France) was used to measure HCO3^− secretion in stripped jejunal sheets (Vidyasagar et al. 2005; Vidyasagar et al. 2004; Zhang et al. 2007). Automated pumps maintained a constant pH for luminal solution through the addition of 0.01 μl of 0.025 M sulfuric acid (H2SO4). Standard-to-stat pH calibration was established by adding a known quantity of H2SO4 to a weak buffering solution, which contains an increasing concentration of HCO3^− to produce a linear titration curve.\nJejunal tissues were exposed to a buffered solution on the bath side (serosal side), while the luminal side was exposed to an HCO3^− free, low-buffered solution (0.1-mM HEPES (4-(2-hydroxyethyl)-1-piperazineethanesulfonic acid) buffer, pH 7.4). The HCO3^− secretion was equivalent to the amount of acid added to the luminal solution to maintain the pH at 7.4 (or the stat pH). All experiments were performed under voltage-clamp conditions. HCO3^−-free solution was gassed with 100% O2 and HCO3^−-containing solution was gassed with 95% O2 and 5% CO2. The HCO3^− secretion was expressed as μeq h^−1·cm^−2 (Vidyasagar et al. 2005; Vidyasagar et al. 2004; Zhang et al. 2007).\nAfter the tissue was mounted, HCO3^− secretions were initially present in the absence of bath HCO3^−, but rapidly fell towards 0 within 20-30 minutes. If bath HCO3^− was not present during the titration, the HCO3^− secretion remained close to 0. […] When inhibitors were added to the mucosal solution, the pH was adjusted and allowed to equilibrate for 30 minutes, until a steady rate of HCO3^− secretion was observed. When the inhibitor was added to the bath side, the tissue was also equilibrated for 30 minutes to achieve a steady rate of HCO3^− secretion (see Table 3).\nAll experiments were performed during the initial 1-hour steady-state period. 1 tissue from each animal was used for each experiment; only 1 experimental condition was studied with each tissue sample. All experiments were repeated for at least 4 times."}, "[3]": {"system": "jejunal mucosa (net anion secretion)", "test": "Ussing chamber transepithelial short circuit current (Isc) with transport blockers/forskolin", "assay_type": "cell-based, mice", "conditions": "10 μM bumetanide"}, "glutamine transporter": {"system": "glutamine transporter", "test": "Glutamine-stimulated Isc / saturation kinetics of glutamine transporter", "assay_type": "cell-based, mice", "conditions": "increasing IR dose"}, "[4]": {"system": "mice with injury to small intestine mucosa", "test": "Oral administration of candidate nutrients in radiation, chemotherapy and Crohn's disease models", "protocol": "In a Crohn's disease model, mice are injected with anti-CD3 mAb (acute inflammatory model to mimic conditions of Crohn's disease).\nThe alterations of absorptive capacity of nutrients are determined using disease models with injury to small intestine mucosa, i.e., the radiation model, chemotherapy model, and the Crohn's disease model. Specifically, a candidate nutrient is orally administered to control mice and mice that received irradiation, chemotherapy, and anti-CD3 mAb, respectively. In addition, compositions containing various combinations of the candidate nutrients are orally administered.\nTo determine the absorptive capacity of each nutrient, bioelectric measurements are performed using an Ussing chamber. The measurements include: a) the sodium coupled-amino acid current (ISC) and changes in conductance, b) changes in saturation kinetics of each nutrient and changes in the ISC following the administration of each nutrient; and c) the electrolyte absorption studies using isotope flux studies in the presence and absence of the specific candidate nutrient."}, "GI tract mucosa": {"system": "GI tract mucosa", "conditions": "animal studies; cited from earlier work"}, "[5]": {"system": "patients who have received pelvic radiation therapy", "conditions": "oral glutamine feeding; patients after pelvic radiation therapy; cited from earlier work"}, "IR mice": {"system": "IR mice", "conditions": "lysine 20 mg/mice/day orally for 5 days, thereafter every other day", "from_the_text": "Gavage was used during the experiment, and treatments were given on the first 5 days after irradiation and every other day until 10 days after irradiation."}, "lysine-transporter": {"system": "lysine-transporter", "test": "Lysine-stimulated Isc / lysine transport kinetics", "assay_type": "cell-based, mice"}, "[6]": {"conditions": "clinical trials; cited from earlier work"}, "[7]": {"conditions": "oral administration, radiation, chemotherapy and Crohn's disease models"}, "[8]": {"conditions": "oral feeding of an irradiated subject"}}, "note": "Values joined by “and” are separate entries in the source; they are usually repeats but may differ in a detail not shown here. Identical values can stand only once. “Also recorded” adds a separate entry of the source. Like-named read-outs stand apart in the source and are kept apart here."}
{"molecule": "O=c1[nH]cc(F)c(=O)[nH]1", "note": "[5-FU, 5-fluorouracil]", "values": [{"measurement": "net anion secretion (transepithelial ISC)", "setting": "small intestine mucosa", "result": "significant increase in net anion secretion"}, {"measurement": "toxicity to small intestine", "setting": "small intestine mucosa", "result": "maximum toxicity to small intestine"}]}
{"molecule": "CCCCNc1cc(C(=O)O)cc(S(N)(=O)=O)c1Oc1ccccc1", "note": "[bumetanide]", "values": [{"measurement": "basal Isc after bumetanide", "setting": "[1]; 0-Gy mice, 1.6±0.2 without", "result": "0.9±0.1", "unit": "μeq·h^−1·cm^−2"}, {"measurement": "forskolin-stimulated Isc after bumetanide", "setting": "[1]; 0 Gy", "result": "1.3±0.2", "unit": "μeq·h^−1·cm^−2"}, {"measurement": "forskolin-stimulated Isc after bumetanide", "setting": "[1]; 3 Gy", "result": "0.4±0.1", "unit": "μeq·h^−1·cm^−2"}, {"measurement": "basal and forskolin-stimulated increase in Isc", "setting": "[1]; bumetanide on bath side, Cl^−-free solution on both sides", "result": "did not inhibit basal and forskolin-stimulated increase in Isc"}, {"measurement": "basal Isc after bumetanide", "setting": "[1]; irradiated (3 Gy) tissues, 5.5±0.5 without", "result": "0.6±0.1", "unit": "μeq·h^−1·cm^−2"}, {"measurement": "HCO3^− secretion", "setting": "[2]; 0 Gy + bumetanide, tissues treated with forskolin, Cl^−-free lumen solution", "result": "8.4 ± 0.4^ μeq·h^−1·cm^−2"}, {"measurement": "HCO3^− secretion", "setting": "[2]; 3 Gy + bumetanide, Cl^−-free lumen solution", "result": "0.8 ± 0.1^ns μeq·h^−1·cm^−2"}, {"measurement": "Isc associated with IR", "setting": "[3]", "result": "abolished almost all of the Isc associated with IR"}]}
{"molecule": "COc1ccc(Cl)cc1C(=O)NCCc1ccc(S(=O)(=O)NC(=O)NC2CCCCC2)cc1", "note": "[glibenclamide]", "values": [{"measurement": "bumetanide-insensitive Isc after mucosal addition of blocker", "setting": "[1]; 0-Gy mice, 10 μM NPPB, 100 μM glibenclamide", "result": "0.1±0.01", "unit": "μeq·h^−1·cm^−2"}, {"measurement": "HCO3^− secretion", "setting": "[2]; 0 Gy + bumetanide, tissues treated with forskolin, 100 μM blocker in lumen solution", "result": "0.5 ± 0.1^ μeq·h^−1·cm^−2"}, {"measurement": "forskolin-stimulated HCO3^− secretion after blocker", "setting": "[2]", "result": "0.1 ± 0.1^ μeq·h^−1·cm^−2"}, {"measurement": "forskolin-stimulated HCO3^− secretion after blocker", "setting": "[2]; listed as Glibenclamide", "result": "0.1±0.1", "unit": "μeq·h^−1·cm^−2"}, {"measurement": "HCO3^− secretion", "setting": "[2]; 0 Gy, blocker in lumen solution (100 μM DIDS or glibenclamide)", "result": "0.5 ± 0.1^ μeq·h^−1·cm^−2"}, {"measurement": "HCO3^− secretion", "setting": "[2]; 3 Gy + bumetanide, 100 μM blocker in lumen solution", "result": "0.2 ± 0.1^ns μeq·h^−1·cm^−2"}, {"measurement": "HCO3^− secretion", "setting": "[2]; 3 Gy, blocker in lumen solution / mucosal addition (100 μM DIDS or glibenclamide; NPPB)", "result": "0.11±0.1 μeq·h^−1·cm^−2 and 0.1 ± 0.1^ns μeq·h^−1·cm^−2"}]}
{"molecule": "NC(=O)CC[C@H](N)C(=O)O", "note": "[glutamine]", "values": [{"measurement": "Km of glutamine transporter (saturation kinetics)", "setting": "glutamine transporter; FIG. 15", "result": "IR dose-dependent increase in Km"}, {"measurement": "glutamine-stimulated Isc", "setting": "glutamine transporter; FIG. 15 legend", "result": "dose-dependent increase in glutamine-stimulated Isc"}, {"measurement": "small intestine mucosa barrier", "setting": "[4]; [7]", "result": "impairs small intestine mucosa barrier"}, {"measurement": "survival of mice", "setting": "[4]; [7]", "result": "has adverse effects on survival of mice"}, {"measurement": "osmotic diarrhea", "setting": "[4]; [8]", "result": "cause osmotic diarrhea"}, {"measurement": "survival", "setting": "[4]; [8]", "result": "reduced survival"}, {"measurement": "protection of GI tract mucosa from injury caused by chemotherapy or radiation therapy", "setting": "GI tract mucosa", "result": "protects both upper and lower GI tract mucosa from injury"}, {"measurement": "prevention or alleviation of acute diarrhea", "setting": "[5]", "result": "fail to show that oral glutamine feeding can prevent or alleviate acute diarrhea"}]}
{"molecule": "NCCCC[C@H](N)C(=O)O", "note": "[lysine]", "values": [{"measurement": "survival", "setting": "[4]; [8]", "result": "prolongs survival"}, {"measurement": "effect of oral administration on small intestine healing, paracellular conductance, electrolyte absorption, survival", "setting": "[4]; radiation, chemotherapy and Crohn's disease models, each amino acid", "result": "improve small intestine healing, reduces paracellular conductance (thereby improving small intestine mucosal barrier mechanism), increases absorption of electrolytes, and/or improves survival in animals"}, {"measurement": "survival of IR mice with oral lysine", "setting": "IR mice", "result": "increased survival; also recorded: can increase survival in mice"}, {"measurement": "survival of IR mice with oral lysine", "setting": "IR mice; listed as Lysine", "result": "increased survival"}, {"measurement": "Isc on addition of lysine to small intestine lumen side", "setting": "lysine-transporter", "result": "causes an increase in Isc"}, {"measurement": "Km", "setting": "lysine-transporter; 3 Gy IR tissues", "result": "270 ± 10", "unit": "µM"}, {"measurement": "lysine-stimulated Isc", "setting": "lysine-transporter; increasing IR dose, FIG. 16 legend", "result": "dose-dependent decrease in lysine-stimulated Isc"}, {"measurement": "Km", "setting": "lysine-transporter; tissues from non-IR mice", "result": "1160 ± 40", "unit": "µM"}]}
{"molecule": "sucralfate", "values": [{"measurement": "reduction of acute GI symptoms (diarrhea prophylaxis)", "setting": "[6]", "result": "only a moderate reduction of acute GI symptoms was achieved"}]}
